SMILES strings stand for the structures. Like-named read-outs stand apart in the source and are kept apart here.

Details of series [1]: method as in Yang et al., 2019b. The settings on record: rats, 10 mg/kg oral dose; ref Yang et al., 2019b; cited from earlier work.
The conditions of series [2]: orally administered to rats; ref Yang et al., 2019a; cited from earlier work.
For series [3] the following is noted: rat plasma, cited from earlier work.
A short description of series [4]: Oral pharmacokinetic study of 2HF in BALB/c mouse blood (HPLC-MS/MS, non-compartmental analysis). It is filed as in vivo. The settings on record: BALB/c mice, single oral dose 10 mg/kg, whole blood. How it is done:
BALB/c mice, with six mice per group, received a single dose of 10 mg/kg 2HF that was solubilized in DMSO (2%) and suspended in Ora-plus® (Perrigo, Minneapolis, MN, United States). ORA-Plus is an aqueous-based vehicle consisting of suspending agents that have a high degree of colloidal activity, facilitating the process involved in the extemporaneous compounding of oral suspensions. Ora-Plus contains purified water, microcrystalline cellulose, sodium carboxymethylcellulose, xanthan gum, and carrageenan as suspending agents; calcium sulfate, sodium phosphate, and citric acid as buffering agents; simethicone as an antifoaming agent; and potassium sorbate and methylparaben as preservatives, as described in the datasheet. The doses were administered orally using a gavage needle.
Mouse blood (300 µL) was collected via the orbital plexus, one mouse per time, with six replicates (6 mice per time interval). For anesthesia, an ophthalmic solution of tetracaine hydrochloride (1%) and phenylephrine hydrochloride (0,1%) was used, and one drop was administered in the chosen orbital 5 min before collection. The collection was performed with […] Pasteur pipettes that were previously autoclaved, and blood was transferred to 1.5 mL microtubes that were also heparinized. The time intervals determined were 2.5, 5, 7.5, 10, 15, 30, 45, 60, 90, 120, and 240 min after administration of the compound. After collecting all samples, 2HF was extracted as described above.
The pharmacokinetic parameters were obtained by non-compartmental analysis (NCA) using the Phoenix WinNonlin® 8.1 program (CERTARA). The maximum blood peak concentration (Cmax) and time to peak concentration (Tmax) were obtained directly from the blood concentration-time profiles. The area under the concentration-time curve from time zero to time t (AUC0–t) was obtained using the trapezoidal method. The area under the total blood concentration-time curve from time zero to infinity (AUC0–∞) was calculated using Eq. 4 as follows: AUC0–∞=AUC0–t+Clast÷kel (4) where Clast is the concentration observed at the last time, and kel is the apparent elimination rate constant obtained from the terminal slope of the blood concentration-time curve after logarithmic transformation of the blood concentrations and application of linear regression.
The blood elimination half-life (t1/2) was calculated using Eq. 5 as follows: t1/2=ln2÷kel (5)
Apparent oral clearance (CL/F) and apparent volume of distribution (Vd/F) parameters were obtained from the blood concentrations and expressed normalized to bioavailability (F) because only oral data are available.

Series [5] can be described thus: Stability of 2HF in mouse blood (short-term, postpreparative, freeze-thaw, long-term). It is filed as in vitro ADME, BALB/c mouse. The settings on record: for Deviation, short term stability / Mean concentration, short term stability: +22.0 °C; for Deviation, short term stability / Mean concentration, short term stability / Deviation, freeze-thaw stability / Mean concentration, freeze-thaw stability / Deviation, long-term stability / Mean concentration, long-term stability / Deviation, postpreparative stability / Mean concentration, postpreparative stability: n = 8; for Deviation, freeze-thaw stability / Mean concentration, freeze-thaw stability / Deviation, long-term stability / Mean concentration, long-term stability: −70.0 °C; for Deviation, freeze-thaw stability / Mean concentration, freeze-thaw stability: 6 cycles; for Deviation, postpreparative stability / Mean concentration, postpreparative stability: processed mouse blood sample, +10.0 °C. How it is done:
Stability studies were initiated and completed before analyzing the studied samples. The stability in the biological matrix was evaluated through freezing and thawing cycles, short-term and long-term stability, and postpreparative. All tests were performed with eight replicates for each sample concentration level. To carry out the stability tests, an initial quantification test (TQI) was performed in accordance with local regulatory norms that aim to guarantee good practices through quality standards. In this test, samples of LQC […] and HQC […] were analyzed, in which the concentration was determined by utilizing a freshly prepared calibration curve. The number of replicates that were analyzed in each control was the same as that used in the stability tests. Freeze–thaw cycle temperatures are presented in Supplementary Table S4.
The stability of 2HF in BALB/c mouse blood was evaluated using short-term tests at 22 °C, postprocessing stability at +10 °C, stability in freeze–thaw cycles (n = 06 cycles) and long-term stability with the samples stored at −70 °C. In these assays, the quality controls of low and high concentrations, LQC: 3.00 ng/mL and HQC: 200.00 ng/mL, were used.

In series [6] the test system is Leishmania amazonensis. On the set-up: method as in Gervazoni et al., 2018. Particulars: in vitro; ref Gervazoni et al., 2018; cited from earlier work.
For series [7], the system named is Leishmania amazonensis. The settings on record: ref Gervazoni et al., cited from earlier work; for In vivo effects in cutaneous leishmaniasis model: single oral dose/day, 2020.
For the next series, the system named is tumor growth. On the set-up: method as in earlier work. Particulars: single oral doses of 100 mg/kg/day or 25, 50 and 100 mg/kg every other day, ref Yue et al., 2020, Nagaprashantha et al., 2011, Singhal et al., 2018a, 2018b; cited from earlier work.
For series [8] the following is noted: ref Gervazoni et al., 2020; cited from earlier work.
On the set-up of series [9]: method as in Teng et al., 2012. Particulars: ref Teng et al., 2012; cited from earlier work.
[10] abbreviates: oral single dose 100 mg/kg, ref Zhao et al., 2020.
Setting [11] is: mouse blood, HQC nominal 200.00 ng/mL.
The mark [12] stands for this setting: mouse blood, LQC nominal 3.00 ng/mL.
[13] abbreviates: sensitive and cutaneous murine model, 2018.

With `COc1cc(O)c(C(=O)/C=C/c2ccccc2)c(OC)c1` [flavokavain B], in [1], the Cmax is on record as 265.2 ng/mL, the T1/2 is listed as 2.76 h and the “Time of Cmax” value is given as 1 h.
Turning to `O=C1c2c(O)cc(O)cc2O[C@H](c2ccc(O)c(O)c2)[C@H]1O` [dihydroquercetin], in [2], the T1/2 was 2.32 h and the Tmax is given as 0.28 h.
With `O=C1c2c(O)cc(O)cc2O[C@H](c2cc(O)c(O)c(O)c2)[C@H]1O` [dihydromyricetin], in [2], the T1/2 was 3.04 h and the Tmax is recorded as 0.57 h.
As to `O=C(CCc1ccc(O)cc1)c1c(O)cc(O)cc1O` [Phloretin], in [3] (setting [10]), the T1/2 was 2.83 h and the Tmax was 1.25 h.
In the case of `O=c1c(O)c(-c2cc(O)c(O)c(O)c2)oc2cc(O)cc(O)c12` [myricetin], in [2], the T1/2 was 2.46 h and the Tmax is 0.22 h.
Turning to `COc1cc(O)cc(O)c1C(=O)/C=C/c1ccccc1` [Cardamonin], the Tmax in series [3] (oral single dose 5 mg/kg, ref Jaiswal et al., 2017) was 0.50 h.
Turning to `O=C1CC(c2ccccc2O)Oc2ccccc21` (centres unmarked) [2HF, 2′-Hydroxyflavanone], in series [4], the AUC0-inf is 5,524.54 min x ng/mL; the AUC % extrap is 7.30%; the “Cl/F, total blood clearance” value was 18.10 mL/min; the “Tmax, time to reach Cmax” value is 5 min. Further, in [4] (trapezoidal method), the AUC0-t was 5,120.98 min x ng/mL. For the same compound, the k el in series [4] (mouse, NCA, read-out: Kel, elimination rate constant (converted)) is 0.000118 s⁻¹. The half-life in series [4] (mouse, NCA, read-out: T1/2, elimination half-time) was determined as 1.63 h. The Cmax in series [4] (mouse, read-out: Cmax, maximum concentration) amounted to 186 ng/mL. In addition, the Vd/F in series [4] (mouse, read-out: Vd/F, volume of distribution) stood at 2.55 L. Moreover, the “Deviations in stability tests” value in series [5] (biological matrix, freezing and thawing, short duration, postprocessing and long duration) is recorded as “less than 15%”. In [5] (setting [11]), the “Deviation, short term stability” value turned out to be 7.53%; the “Mean concentration, short term stability” value is listed as 215.06 ng/mL; the “Deviation, freeze-thaw stability” value is on record as 4.68%; the “Mean concentration, freeze-thaw stability” value came out at 209.37 ng/mL. Also, in series [5] (setting [11]), the “Deviation, long-term stability” value came to 5.42% and the “Mean concentration, long-term stability” value turned out to be 210.83 ng/mL. In series [5] (setting [12]), the “Deviation, short term stability” value turned out to be 4.59%; the “Mean concentration, short term stability” value came to 3.14 ng/mL; the “Deviation, freeze-thaw stability” value turned out to be 1.61%; the “Mean concentration, freeze-thaw stability” value is 3.05 ng/mL. In addition, in [5] (setting [12]), the “Deviation, long-term stability” value is −1.33% and the “Mean concentration, long-term stability” value was 2.96 ng/mL. Also, in [5] (mouse blood, all stability tests performed), the “Degradation in the biological matrix” value was “no significant degradation”. In [5] (HQC nominal 200.00 ng/mL), the “Deviation, postpreparative stability” value came to 11.08% and the “Mean concentration, postpreparative stability” value is on record as 222.16 ng/mL. For the same compound, in [5] (LQC nominal 3.00 ng/mL), the “Deviation, postpreparative stability” value was found to be 10.11% and the “Mean concentration, postpreparative stability” value is recorded as 3.30 ng/mL. In addition, the “Inhibition of promastigote and amastigote forms” value in the series on Leishmania amazonensis [6] was “inhibit both the promastigote and amastigote forms”. In addition, the “In vivo activity in experimental model of cutaneous leishmaniasis” value in the series with Leishmania amazonensis [7] (daily doses of 50 mg/kg for 35 days, 2018) is reported as “significant effect”. Further, in the series on Leishmania amazonensis [7] (setting [13]), the Lesion size entry is recorded as “decrease the lesion size” and the Parasitic load result is on record as “almost cease the parasitic load”. Further, the Tumor growth entry with tumor growth is “inhibited different types of tumor growth”.
On to `O=c1c(O)c(-c2ccc(O)c(O)c2)oc2cc(O)cc(O)c12` [quercetin], for which the “In vivo effects in cutaneous leishmaniasis model” value with Leishmania amazonensis [7] is given as “promising in vivo effects”. Moreover, the T1/2 in [2] is 3.00 h; in series [8], “less than 192 min”. The Tmax in series [2] is 0.25 h.
Regarding `O=c1cc(-c2ccc(O)cc2)oc2cc(O)cc(O)c12` [apigenin], in series [9], the Cmax is 42 ng/mL, the T1/2 is 2.11 h and the Tmax is listed as 0.50 h. The “In vivo effects in cutaneous leishmaniasis model” value in the series with Leishmania amazonensis [7] is recorded as “promising in vivo effects”. For the same compound, in series [8], the T1/2 result is given as “less than 192 min”.
